Molecules are shown by their SMILES.

The values that follow come from EP0470144B1, “BETA-HYDROXAMATE D-ASPARTIC ACID FOR TREATMENT OF VIRAL INFECTIONS AND TUMOURS” (priority 1989, dated 1990).

Data set [1] in a line: LD50 comparison of DAH and LAH. The conditions noted are these: in vivo.
A further data set concerns leucémie L1210. Put plainly: Antitumour activity in the L1210 leukaemia model, survival. To be noted: for Nombre d'animaux survivants: at 30 days. It counts as in vivo, souris B6D2F1/J. The text has this: L'activité antitumorale du DAH et du LAH a été étudiée sur le modèle de leucémie L1210. Les cellules leucémiques L1210 sont maintenues par passages intrapéritonéaux dans la souris B6D2F1/J mâle. […] La durée d'observation est de 30 jours.

Turning to `N[C@@H](CC(=O)NO)C(=O)O` [LAH, L-aspartique acide β hydroxamate, reference compound], in data set [1], the “DL 50 %” value was 2,5 g/kg. In addition, the T/Cx100 in the data set on leucémie L1210 (1,5 g/kg x4/j, day 1) is reported as 50%; with leucémie L1210 (1 g/kg x4/j, days 1,2), 65%. For the same compound, the “Nombre d'animaux survivants” value is 0/5 with leucémie L1210 (1,5 g/kg x4/j, day 1) and 0/5 in the data set on leucémie L1210 (1 g/kg x4/j, days 1,2). The activité antitumorale result in the data set with leucémie L1210 (lighter protocol than for DAH) is listed as “on n'a pas observé d'activité antitumorale”. Further, the toxicité entry with leucémie L1210 (lighter protocol, treated animals died before the control group) is “toxicité très importante”; in the data set on leucémie L1210 (same dosage conditions as DAH (1 g/kg, 4 times a day, 3 days)), “très toxique”.
